For assay [1], the target named is T1, Histone deacetylase 4 (Homo sapiens, UniProt P56524). Put plainly: Inhibition of wild type HDAC4 expressed in Escherichia coli.
Assay [2] concerns the target T2, Histone deacetylase 3 (Homo sapiens, UniProt O15379). Description: Inhibition of HDAC3 at 10 uM.
Assay [3] concerns the target T3, Protein deacetylase HDAC6 (Homo sapiens, UniProt Q9UBN7).
T3 sequence (Q9UBN7 whole entry): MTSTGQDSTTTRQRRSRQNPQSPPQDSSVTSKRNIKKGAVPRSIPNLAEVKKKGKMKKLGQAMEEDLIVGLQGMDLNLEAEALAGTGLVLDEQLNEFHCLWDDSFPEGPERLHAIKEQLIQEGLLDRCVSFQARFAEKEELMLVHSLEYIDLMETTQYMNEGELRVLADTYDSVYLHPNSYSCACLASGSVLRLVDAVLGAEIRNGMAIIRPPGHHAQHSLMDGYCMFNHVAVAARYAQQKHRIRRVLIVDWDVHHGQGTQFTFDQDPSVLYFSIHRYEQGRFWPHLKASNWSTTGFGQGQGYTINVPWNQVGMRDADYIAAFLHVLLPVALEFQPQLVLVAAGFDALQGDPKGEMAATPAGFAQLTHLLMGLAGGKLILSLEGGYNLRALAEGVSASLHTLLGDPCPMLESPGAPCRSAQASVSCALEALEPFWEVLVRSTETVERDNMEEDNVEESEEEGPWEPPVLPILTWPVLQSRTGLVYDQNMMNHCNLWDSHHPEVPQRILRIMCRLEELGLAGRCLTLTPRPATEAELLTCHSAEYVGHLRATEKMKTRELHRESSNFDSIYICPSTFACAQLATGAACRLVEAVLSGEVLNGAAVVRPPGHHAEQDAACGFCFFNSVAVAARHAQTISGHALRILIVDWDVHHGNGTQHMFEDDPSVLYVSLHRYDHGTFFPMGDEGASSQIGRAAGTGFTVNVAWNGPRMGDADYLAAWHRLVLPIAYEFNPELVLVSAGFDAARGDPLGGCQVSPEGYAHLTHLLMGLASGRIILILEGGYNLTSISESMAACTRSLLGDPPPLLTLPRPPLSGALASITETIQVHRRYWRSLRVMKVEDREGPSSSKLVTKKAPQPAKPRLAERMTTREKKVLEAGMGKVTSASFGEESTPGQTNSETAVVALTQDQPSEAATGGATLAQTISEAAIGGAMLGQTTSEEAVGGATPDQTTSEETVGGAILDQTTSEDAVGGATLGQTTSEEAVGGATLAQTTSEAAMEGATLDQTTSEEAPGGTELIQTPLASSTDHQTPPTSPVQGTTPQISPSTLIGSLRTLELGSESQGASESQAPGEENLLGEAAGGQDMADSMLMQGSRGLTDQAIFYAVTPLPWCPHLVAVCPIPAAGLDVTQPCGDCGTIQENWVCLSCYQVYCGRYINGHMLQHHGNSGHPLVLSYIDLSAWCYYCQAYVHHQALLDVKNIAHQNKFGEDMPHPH
Description: Inhibition of HDAC6.

In assay [4] the target is T4, Histone deacetylase 1 (Homo sapiens, UniProt Q13547). Description: Inhibition of HDAC1 at 10 uM.
In assay [5] the target is Histone deacetylase 4 (Homo sapiens, UniProt P56524, H976Y). Put plainly: Inhibition of HDAC4GOF mutant expressed in Escherichia coli.
The target of assay [6] is T4, Histone deacetylase 1. Put plainly: Inhibition of HDAC1.
For assay [7], the target named is T1, Histone deacetylase 4. Description: Inhibition of wild type HDAC4 at 10 uM.
For assay [8], the system named is T5, Histone deacetylase 4 (Homo sapiens), P56524 [H976Y].
T5 sequence (whole entry): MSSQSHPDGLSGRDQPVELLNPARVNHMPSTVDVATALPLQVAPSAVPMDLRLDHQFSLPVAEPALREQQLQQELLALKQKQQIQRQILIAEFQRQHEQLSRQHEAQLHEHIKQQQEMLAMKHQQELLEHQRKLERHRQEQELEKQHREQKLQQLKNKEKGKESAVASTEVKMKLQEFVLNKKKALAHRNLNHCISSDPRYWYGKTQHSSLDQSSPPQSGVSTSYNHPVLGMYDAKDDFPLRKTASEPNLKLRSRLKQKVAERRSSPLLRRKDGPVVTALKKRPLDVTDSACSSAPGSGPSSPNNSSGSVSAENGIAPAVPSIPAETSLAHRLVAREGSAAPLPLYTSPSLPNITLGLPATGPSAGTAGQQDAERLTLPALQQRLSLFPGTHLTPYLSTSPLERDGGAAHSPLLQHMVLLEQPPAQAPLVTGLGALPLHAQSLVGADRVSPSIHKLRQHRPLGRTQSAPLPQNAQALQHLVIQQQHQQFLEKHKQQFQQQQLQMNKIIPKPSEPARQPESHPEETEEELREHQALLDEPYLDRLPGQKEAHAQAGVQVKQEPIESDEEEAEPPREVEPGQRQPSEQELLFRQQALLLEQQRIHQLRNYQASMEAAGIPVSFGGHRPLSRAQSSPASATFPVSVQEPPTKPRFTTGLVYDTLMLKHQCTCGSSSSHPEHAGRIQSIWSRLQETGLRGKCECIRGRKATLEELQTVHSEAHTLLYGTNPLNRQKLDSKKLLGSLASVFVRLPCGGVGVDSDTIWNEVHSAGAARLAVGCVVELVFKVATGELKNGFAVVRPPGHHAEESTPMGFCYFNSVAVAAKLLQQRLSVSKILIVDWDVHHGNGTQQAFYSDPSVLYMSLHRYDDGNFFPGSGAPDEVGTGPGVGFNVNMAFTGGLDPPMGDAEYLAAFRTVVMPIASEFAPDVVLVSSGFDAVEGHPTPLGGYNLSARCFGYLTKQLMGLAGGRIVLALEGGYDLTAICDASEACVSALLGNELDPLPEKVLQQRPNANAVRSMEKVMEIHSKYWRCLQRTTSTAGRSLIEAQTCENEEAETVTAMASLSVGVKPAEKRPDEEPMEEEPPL
Put plainly: Inhibition of HDAC4GOF mutant at 10 uM.

The target in assay [9] is T2, Histone deacetylase 3. Put plainly: Inhibition of HDAC3.

Activity calls are given as the source filed them. No cut-off for these calls is given here.

T1 sequence (P56524 whole entry): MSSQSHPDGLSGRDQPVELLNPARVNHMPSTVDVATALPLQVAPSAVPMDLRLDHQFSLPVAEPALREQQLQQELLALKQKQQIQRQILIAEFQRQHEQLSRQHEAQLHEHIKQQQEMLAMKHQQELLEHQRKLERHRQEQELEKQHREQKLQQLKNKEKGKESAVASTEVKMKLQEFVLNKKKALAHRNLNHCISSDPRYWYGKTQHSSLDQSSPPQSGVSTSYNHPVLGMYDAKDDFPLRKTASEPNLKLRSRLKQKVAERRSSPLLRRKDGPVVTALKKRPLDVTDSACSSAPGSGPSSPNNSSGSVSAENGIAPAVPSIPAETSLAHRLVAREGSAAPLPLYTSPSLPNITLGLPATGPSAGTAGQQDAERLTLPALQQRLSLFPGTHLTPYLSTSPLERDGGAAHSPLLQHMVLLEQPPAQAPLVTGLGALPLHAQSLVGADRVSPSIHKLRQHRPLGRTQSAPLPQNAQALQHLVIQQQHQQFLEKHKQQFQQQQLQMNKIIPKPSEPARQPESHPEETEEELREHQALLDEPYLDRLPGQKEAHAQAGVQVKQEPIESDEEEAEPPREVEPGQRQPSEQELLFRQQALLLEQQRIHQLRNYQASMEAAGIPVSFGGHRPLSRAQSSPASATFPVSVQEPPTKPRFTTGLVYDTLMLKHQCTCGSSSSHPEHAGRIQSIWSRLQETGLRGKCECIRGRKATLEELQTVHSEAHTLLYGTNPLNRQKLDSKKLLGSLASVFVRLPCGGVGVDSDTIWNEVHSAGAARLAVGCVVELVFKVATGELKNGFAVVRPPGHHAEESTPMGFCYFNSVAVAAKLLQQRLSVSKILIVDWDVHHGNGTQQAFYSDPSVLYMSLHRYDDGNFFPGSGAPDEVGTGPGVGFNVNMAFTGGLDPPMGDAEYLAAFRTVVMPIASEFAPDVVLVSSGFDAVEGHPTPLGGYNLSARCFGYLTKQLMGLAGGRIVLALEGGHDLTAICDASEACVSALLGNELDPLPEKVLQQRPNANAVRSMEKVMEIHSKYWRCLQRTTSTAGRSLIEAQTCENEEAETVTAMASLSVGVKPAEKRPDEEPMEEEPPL
T2 sequence (O15379 whole entry): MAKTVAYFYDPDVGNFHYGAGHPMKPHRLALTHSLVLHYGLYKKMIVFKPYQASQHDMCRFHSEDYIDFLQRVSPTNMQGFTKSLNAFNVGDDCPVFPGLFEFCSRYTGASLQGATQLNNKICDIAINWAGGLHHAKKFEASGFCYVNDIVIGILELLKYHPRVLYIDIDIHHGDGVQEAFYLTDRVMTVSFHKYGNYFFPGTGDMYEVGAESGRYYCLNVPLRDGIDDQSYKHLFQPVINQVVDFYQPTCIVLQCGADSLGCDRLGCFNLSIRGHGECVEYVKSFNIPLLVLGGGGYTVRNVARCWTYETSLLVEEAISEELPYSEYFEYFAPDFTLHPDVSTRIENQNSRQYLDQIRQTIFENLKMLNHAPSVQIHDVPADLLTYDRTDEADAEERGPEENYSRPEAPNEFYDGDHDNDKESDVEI
T4 sequence (Q13547 whole entry): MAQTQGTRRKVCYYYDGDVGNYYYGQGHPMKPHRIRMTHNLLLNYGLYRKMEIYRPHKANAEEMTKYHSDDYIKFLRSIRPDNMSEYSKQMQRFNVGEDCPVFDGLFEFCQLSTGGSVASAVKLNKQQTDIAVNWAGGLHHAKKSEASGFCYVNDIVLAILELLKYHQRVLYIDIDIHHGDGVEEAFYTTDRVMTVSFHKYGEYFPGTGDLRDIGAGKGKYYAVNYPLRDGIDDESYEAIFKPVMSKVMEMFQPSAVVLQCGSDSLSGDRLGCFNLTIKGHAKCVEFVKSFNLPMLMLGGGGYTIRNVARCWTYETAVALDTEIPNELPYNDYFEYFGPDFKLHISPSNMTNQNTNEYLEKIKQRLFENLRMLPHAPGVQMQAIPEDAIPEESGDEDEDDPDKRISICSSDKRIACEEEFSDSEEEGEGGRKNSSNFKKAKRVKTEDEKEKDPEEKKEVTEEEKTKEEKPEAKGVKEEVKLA

In the case of `CCOC(=O)c1ccc(C(=O)C(F)(F)F)o1`, the IC50 (commonly the concentration at which inhibition is half-maximal) was 2500 nM on Histone deacetylase 4 [1], 550 nM in assay [3] and 3100 nM against Histone deacetylase 4 [5]. Further, the outcome on Histone deacetylase 3 [2] was inactive. Moreover, on Histone deacetylase 1 [4], the inhibition (in general, the relative decrease from the control value, in per cent) is 48%.
Consider `CCNC(=O)c1ccc(C(=O)C(F)(F)F)s1`, for which the IC50 on Histone deacetylase 1 [6] worked out at 7100 nM; on Histone deacetylase 4 [1], 1700 nM; in assay [3] it was 310 nM; on Histone deacetylase 4 [5], 1000 nM.
Regarding `O=C(NCC1CCCCC1)c1ccc(C(=O)C(F)(F)F)cc1`, the results for the inhibition (against Histone deacetylase 4 [7]; in assay [8]) were 32% and 31%, respectively. Besides, the outcome on Histone deacetylase 3 [2] and on Histone deacetylase 1 [4] was inactive. In assay [3], this molecule gave an IC50 of 2500 nM.
For the molecule `CC(=O)c1ccc(C(=O)N[C@H](C)c2ccccc2)s1`, the result (at Histone deacetylase 4 [7]; on Histone deacetylase 3 [2]; in [8]; at Histone deacetylase 1 [4]) was inactive. Further, half-maximal inhibition in [3] (IC50) was put at 6900 nM.
For `O=C(c1ccc(C(=O)N2CCc3ccccc32)s1)C(F)F`, the IC50 at Histone deacetylase 1 [6] was determined as 9700 nM; against Histone deacetylase 4 [1], 7600 nM; in assay [3], 15 nM; at Histone deacetylase 4 [5], 420 nM. This molecule also came in with an inhibition at Histone deacetylase 3 [2] of 42%.
As to `CCOC(=O)c1ccc(C(=O)C(F)(F)F)s1`, the IC50 against Histone deacetylase 3 [9] was determined as 3500 nM; at Histone deacetylase 1 [6], 5700 nM; on Histone deacetylase 4 [1], 320 nM; in assay [3], 550 nM; on Histone deacetylase 4 [5] it was 350 nM.
`C[C@@H](NCc1ccc(C(=O)C(F)(F)F)s1)c1ccccc1`: the IC50 on Histone deacetylase 4 [1] came out at 3700 nM; in assay [3] it was 840 nM; against Histone deacetylase 4 [5], 3500 nM. The result on Histone deacetylase 3 [2] and at Histone deacetylase 1 [4] was inactive.
Consider `CN(Cc1ccccc1)Cc1ccc(C(=O)C(F)(F)F)s1`, for which the IC50 against Histone deacetylase 3 [9] was 4600 nM; against Histone deacetylase 1 [6] it was 3100 nM; on Histone deacetylase 4 [1], 970 nM; in assay [3] it was 490 nM; against Histone deacetylase 4 [5], 1100 nM.
The corresponding values for `COc1ccc(CNC(=O)c2ccc(C(=O)C(F)(F)F)s2)cc1` are 120 nM, 210 nM, 180 nM, 240 nM and 70 nM.
On the same counts, the results for `C[C@H](NC(=O)c1ccc(C(=O)C(F)(F)F)s1)c1ccccc1` are 9400 nM, 5300 nM, 170 nM, 210 nM and 280 nM.
In the case of `O=C(c1ccc(C(=O)C(F)(F)F)[nH]1)N1CCc2ccccc21`, the inhibition against Histone deacetylase 4 [7] was found to be 47%. For the same molecule, the result (on Histone deacetylase 3 [2]; in assay [8]; on Histone deacetylase 1 [4]) was inactive. Further, in assay [3], the IC50 was 880 nM.
As for `O=C(c1ccc(C(=O)C(F)(F)F)s1)N1CCc2ccccc21`, the IC50 on Histone deacetylase 3 [9] came out at 1700 nM; on Histone deacetylase 1 [6] it was 2000 nM; against Histone deacetylase 4 [1], 130 nM; in assay [3] it was 200 nM; against Histone deacetylase 4 [5] it was 300 nM.
In the case of `CN(Cc1ccccc1)C(=O)c1cnc(C(=O)C(F)(F)F)s1`, the IC50 was determined as 7300 nM on Histone deacetylase 3 [9], 760 nM on Histone deacetylase 4 [1], 1300 nM in assay [3] and 2200 nM on Histone deacetylase 4 [5]. The same molecule registered an inhibition on Histone deacetylase 1 [4] of 46%.
With `O=C(NCC1CCCCC1)c1cccc(C(=O)C(F)(F)F)c1`, the result (at Histone deacetylase 4 [7]; at Histone deacetylase 3 [2]; in [8]; on Histone deacetylase 1 [4]) was inactive. In assay [3], the IC50 was found to be 4200 nM.
For the molecule `O=C(NCC1CCCCC1)c1cc(C(=O)C(F)(F)F)cs1`, the IC50 was 3300 nM on Histone deacetylase 4 [1], 2000 nM in assay [3] and 2400 nM at Histone deacetylase 4 [5]. Besides, the result at Histone deacetylase 3 [2] was inactive. The molecule also showed an inhibition against Histone deacetylase 1 [4] of 40%.
Consider `CN(Cc1ccccc1)C(=O)c1ccc(C(=O)C(F)(F)F)s1`, for which the IC50 against Histone deacetylase 3 [9] amounted to 1200 nM; against Histone deacetylase 1 [6] it was 1800 nM; against Histone deacetylase 4 [1], 510 nM; in [3], 230 nM; against Histone deacetylase 4 [5], 170 nM.
On the same counts, the results for `O=C(NCCc1ccccc1)c1ccc(C(=O)C(F)(F)F)s1` are 1700 nM, 880 nM, 330 nM, 210 nM and 180 nM.
For `O=C(NCC1CCCCC1)c1cnc(C(=O)C(F)(F)F)s1`, the IC50 was determined as 7600 nM at Histone deacetylase 3 [9], 850 nM on Histone deacetylase 4 [1], 1500 nM in assay [3] and 2900 nM against Histone deacetylase 4 [5]. In addition, the outcome at Histone deacetylase 1 [4] was inactive.
As to `CN(Cc1ccccc1)S(=O)(=O)c1ccc(C(=O)C(F)(F)F)s1`, the figures for the IC50 (against Histone deacetylase 4 [1]; in [3]; against Histone deacetylase 4 [5]) were 340 nM, 730 nM and 1200 nM, respectively. For the same molecule, the result on Histone deacetylase 3 [2] and on Histone deacetylase 1 [4] was inactive.
For `CN(Cc1ccccc1)S(=O)(=O)c1csc(C(=O)C(F)(F)F)c1`, the IC50 on Histone deacetylase 4 [1] was 9400 nM; in assay [3], 2500 nM. Further, the outcome (on Histone deacetylase 3 [2]; in assay [8]; at Histone deacetylase 1 [4]) was inactive.
For the molecule `CN(Cc1ccccc1)C(=O)c1cc(C(=O)C(F)(F)F)cs1`, the values for the IC50 (at Histone deacetylase 4 [1]; in assay [3]; at Histone deacetylase 4 [5]) were 1700 nM, 640 nM and 2500 nM, respectively. In addition, the result on Histone deacetylase 3 [2] and at Histone deacetylase 1 [4] was inactive.
On to `O=C(NCC1CCCCC1)c1ccc(C(=O)C(F)(F)F)s1`, for which the IC50 against Histone deacetylase 3 [9] came to 3100 nM; against Histone deacetylase 1 [6], 2900 nM; against Histone deacetylase 4 [1], 400 nM; in assay [3] it was 460 nM; at Histone deacetylase 4 [5] it was 350 nM.
On the same counts, the results for `C[C@@H](NC(=O)c1ccc(C(=O)C(F)(F)F)s1)c1ccccc1` are 230 nM, 320 nM, 76 nM, 360 nM and 160 nM.
As to `COc1ccc(COCc2ccc(C(=O)C(F)(F)F)s2)cc1`, the IC50 against Histone deacetylase 4 [1] came out at 5500 nM; in assay [3], 410 nM; against Histone deacetylase 4 [5], 2700 nM. In addition, the outcome at Histone deacetylase 3 [2] and at Histone deacetylase 1 [4] was inactive.
